Assay results published in ChEMBL document CHEMBL3779829, “Tandem virtual screening targeting the SRA domain of UHRF1 identifies a novel chemical tool modulating DNA methylation” (Eur J Med Chem, 2016).
Activity calls are given as the source filed them. The calls are words filed in the database; no cut-off is given here.

What was measured:
Assay type in all cases: cell-based
[1] = molecular target: T1, E3 ubiquitin-protein ligase UHRF1 (Homo sapiens) (UniProt Q96T88); experiment: Inhibition of UHRF1 in human MCF7 cells assessed as decrease in methylation at RAR beta exon at 15 uM after 72 hrs by methylation specific-PCR method
T1 sequence (whole entry): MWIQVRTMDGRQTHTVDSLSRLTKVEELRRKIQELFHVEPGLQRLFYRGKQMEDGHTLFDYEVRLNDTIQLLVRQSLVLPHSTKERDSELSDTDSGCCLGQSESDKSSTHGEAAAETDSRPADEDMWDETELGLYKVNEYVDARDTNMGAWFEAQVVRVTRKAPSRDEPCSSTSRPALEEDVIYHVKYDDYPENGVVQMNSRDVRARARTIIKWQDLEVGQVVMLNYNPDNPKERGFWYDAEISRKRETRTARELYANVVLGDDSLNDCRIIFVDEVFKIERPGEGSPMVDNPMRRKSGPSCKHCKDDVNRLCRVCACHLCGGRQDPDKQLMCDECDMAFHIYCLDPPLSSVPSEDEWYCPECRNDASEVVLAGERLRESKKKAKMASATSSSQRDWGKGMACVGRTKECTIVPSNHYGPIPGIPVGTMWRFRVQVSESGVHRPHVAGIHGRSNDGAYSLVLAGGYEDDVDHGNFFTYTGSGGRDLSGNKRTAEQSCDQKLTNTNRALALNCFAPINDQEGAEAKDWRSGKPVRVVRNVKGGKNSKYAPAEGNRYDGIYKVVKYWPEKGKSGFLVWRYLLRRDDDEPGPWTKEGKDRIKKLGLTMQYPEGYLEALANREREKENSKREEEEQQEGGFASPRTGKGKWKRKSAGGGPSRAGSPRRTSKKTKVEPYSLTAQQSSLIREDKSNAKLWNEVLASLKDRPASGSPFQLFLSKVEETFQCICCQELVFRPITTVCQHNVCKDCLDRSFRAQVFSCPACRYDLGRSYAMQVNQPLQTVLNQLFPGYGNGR

[2] = molecular target: T1, E3 ubiquitin-protein ligase UHRF1 (Homo sapiens); experiment: Inhibition of UHRF1 in human MCF7 cells assessed as reduction in global 5-methylcytosine level at 15 uM after 72 hrs by HPLC-MS/MS analysis relative to control
[3] = molecular target: T1, E3 ubiquitin-protein ligase UHRF1 (Homo sapiens); experiment: Inhibition of UHRF1 in human MCF7 cells assessed as DNA global demethylation by measuring 5-methylcytosine level at 15 uM after 72 hrs by HPLC-MS/MS analysis (reference value: 1.7 +/- 0.36%); set-up: scale not given: the % may be the effect or the level left
[4] = molecular target: T1, E3 ubiquitin-protein ligase UHRF1 (Homo sapiens); experiment: Inhibition of UHRF1/DNMT1 protein interaction in human U251 cells assessed as reduction in 5-methylcytosine level at 15 uM after 72 hrs by ELISA relative to control; settings: U-251
[5] = molecular target: T1, E3 ubiquitin-protein ligase UHRF1 (Homo sapiens); experiment: Inhibition of UHRF1/DNMT1 protein interaction in human U251 cells at 15 uM after 4 hrs by DAPI staining based P-LISA; settings: U-251

Row | SMILES | RAR beta exon methylation decrease (activity call) [1] | inhibition [2] [%] | Activity [3] [%] | inhibition [1] | inhibition [4] [%] | inhibition [5] [%]
1 | CC(=O)c1c[nH]c(=O)[nH]c1=O | Active | 56 | 0.74 |  |  | 
2 | Nc1ncn([C@@H]2O[C@H](CO)[C@@H](O)[C@H]2O)c(=O)n1 | Active | 48 | 0.88 |  |  | 
3 | O=C1NC(=O)C2(CC2)C(=O)N1 |  |  | 0.82 | Active |  | 
4 | CCOC(=O)c1cnc(=O)[nH]c1N | Active |  | 0.87 |  |  | 
5 | CN(C)c1c[nH]c(=O)[nH]c1=O | Active |  | 0.86 |  |  | 
6 | c1ccc2c(C3CCN(CCN4CCOCC4)C3)c[nH]c2c1 (stereo unspecified) | Active |  | 0.99 |  |  | 
7 | C/C(NO)=C1\C=NC(=O)NC1=O |  |  |  |  | 50 | 50
